The values that follow come from US20050245527A1, “Nitrogen containing heterocyclic compounds and medicines containing the same” (priority 2002, published 2005).

One series concerns anesthetized dogs. In words: Evaluation of cardiovascular dynamics and electrocardiogram in anesthetized dogs. Format: in vivo, dog. As to conditions: single administration; for HR / LVdP/dt / PQ interval / QRS interval / QTc interval / mAP: percent change vs value prior to administration; for effects on the cardiovascular system: summary of Tables 4 to 8. An excerpt: <Evaluation of Cardiovascular Dynamics and Electrocardiogram in Anesthetized Dogs> Method Anesthetized dogs were used for the experiment. After isolating the […], a microchip pressure transducer catheter was inserted therein, and the tip was situated near the aortic orifice and in the left ventricle, for measurement of the arterial pressure (AP) and left ventricular pressure (LVP). The LVP was differentiated using a differentiation unit, and the maximum value of the first derivative of the left ventricular pressure ([…] used as the index of the […] contractility. The heart rate (HR) was measured using an instantaneous heart rate counter, with the LVP waveforms as the trigger. A needle electrode was fixed to the right anterior limb and left and right posterior limbs, and a standard II-lead electrocardiogram was taken. The parameters were recorded on a recording sheet. The test substance was administered through the venous catheter inserted in the femoral vein. Administration of Test Substance and Recording Single Administration: The test substance was administered through the catheter for 1 minute. The electrocardiogram was recorded at 2 minutes after administration, and the change in the cardiovascular dynamic was recorded continuously for 10 minutes after the administration. After 10 minutes, the dose was increased and the recording was repeated. Continuous Intravenous Infusion: The test substance was administered through the catheter for a period of one minute, and then a sustained dose was administered by continuous intravenous infusion. The electrocardiogram was recorded at the 5 and 10 minute points, and the change in cardiovascular dynamic was recorded continuously for 10 minutes from the start of administration. After 10 minutes, the dose was increased and the recording was repeated. Analysis The HR, mean arterial pressure (mAP), LVdP/dtmax and electrocardiogram parameters (RR interval, PQ interval, QRS interval, QT interval) were read from the recording sheet. The QT interval was heart rate-corrected and represented as the QTc interval.

Series [1] concerns left saphenous nerve of rats (ectopic firing). In words: Inhibition of ectopic firing. It counts as in vivo. Conditions: Rattus norvegicus, iv; rats with cut left saphenous nerve, urethane anesthesia, compound via catheter in right cervical vein, number of firings in 10 seconds; read-out: Inhibition of ectopic firing (ID50). Put shortly:
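Rat left saphenous nerve transected near the knee (~3 mm excised); recorded more than a week later under urethane (1 g/kg) anesthesia. Compound given via right cervical vein catheter. Ectopic firing recorded with platinum hook electrode, scored as number of firings in 10 seconds.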

The subject of a further series is sodium channels. Format: cell-based. As to conditions: read-out: IC50 (μM), sodium channel-inhibiting activity; rat fetal cultured hippocampal neurons, SBFI fluorescence in the presence of 4-aminopyridine, 5 minutes after addition, 1 μM tetrodotoxin = 100%.

Turning to `CN(C)CCC=C1c2ccccc2CCc2ccccc21` [Amitriptyline], in the series with anesthetized dogs (dose 0.3 mg/kg weight), the HR was −2.9%, the LVdP/dt is given as −5.9%, the PQ interval is −1.5% and the QRS interval stood at 0.4%. In addition, in the series with anesthetized dogs (dose 0.3 mg/kg weight), the QTc interval is 1.9% and the mAP was −0.9%. In the series on anesthetized dogs (dose 1 mg/kg weight), the HR is on record as −4.0%, the LVdP/dt was −21.7%, the PQ interval is given as 8.7% and the QRS interval was determined as 15.4%. Also, in the series with anesthetized dogs (dose 1 mg/kg weight), the QTc interval stood at 13.1% and the mAP is given as −25.4%. Moreover, the “effects on the cardiovascular system” value in the series on anesthetized dogs is recorded as “exhibited effects on the cardiovascular system”.
Consider `CCN(CC)CCCN(c1ccccc1)C1Cc2ccccc2C1` [Aprindine], for which, in the series with anesthetized dogs (dose 2 mg/kg weight), the HR is on record as −12.8%, the LVdP/dt is given as −29%, the PQ interval was 14.2% and the QTc interval was determined as 4.5%. For the same compound, in the series on anesthetized dogs (dose 2 mg/kg weight), the mAP is listed as −34.7%. Besides, in the series with anesthetized dogs (dose 4 mg/kg weight), the HR is −19.2%, the LVdP/dt is −47.5% and the QTc interval was −0.4%. Further, in the series on anesthetized dogs, the PQ interval is recorded as 36.8%, the mAP is −47.7% and the “effects on the cardiovascular system” value is “exhibited effects on the cardiovascular system”.
Broadly, the IC50 is the concentration at which inhibition is half-maximal. With `O=C(Cc1c(F)cccc1C(F)(F)F)C1CCN(Cc2ncc[nH]c2=O)CC1` [Example 376, 3-[4-[2-[2-Fluoro-6-(trifluoromethyl)phenyl]acetyl]piperidino]methyl-1H-pyrazin-2-one], the ED50 in series [1] was under 0.5 mg/kg. The IC50 in the series on sodium channels was 1.1 µM.
`CC(c1ncc[nH]c1=O)N1CCC(C(=O)Cc2ccccc2C(F)(F)F)CC1.O=C(O)C(=O)O` (stereo not drawn) [Example 394, 3-[1-[4-[2-[2-(Trifluoromethyl)phenyl]acetyl]piperidino]ethyl]-1H-pyrazin-2-one oxalate]: in series [1], the ED50 was under 0.5 mg/kg. Further, the IC50 in the series on sodium channels worked out at 2.8 µM.
`O=C(NCC1CCCCN1)c1cc(OCC(F)(F)F)ccc1OCC(F)(F)F` (stereo not drawn) [Flecainide]: in the series with anesthetized dogs (dose 1 mg/kg weight), the HR is recorded as −8.6%, the LVdP/dt is given as −18.2%, the PQ interval turned out to be 8.8% and the QRS interval came to 6.4%. In the series on anesthetized dogs (dose 1 mg/kg weight), the QTc interval is reported as 2.3% and the mAP is −14.2%. In the series with anesthetized dogs (dose 3 mg/kg weight), the HR is −24.8%, the LVdP/dt is reported as −56.9%, the PQ interval was 36.1% and the QRS interval stood at 37.1%. In the series with anesthetized dogs (dose 3 mg/kg weight), the QTc interval was 9.3% and the mAP is −42.9%. The “effects on the cardiovascular system” value with anesthetized dogs is “exhibited effects on the cardiovascular system”.
`Cc1cccc(C)c1OCC(C)N` (stereo not drawn) [Mexiletine]: in series [1], the ED50 lay in the range of 1 to 3 mg/kg. In the series with anesthetized dogs (dose 2.2 mg/kg weight), the HR is recorded as −2.8%, the LVdP/dt was −20.8%, the PQ interval came out at 0.7% and the QRS interval was found to be 1.8%. In addition, in the series with anesthetized dogs (dose 2.2 mg/kg weight), the QTc interval is reported as −3.0% and the mAP was −6.2%. Besides, in the series with anesthetized dogs (dose 6.6 mg/kg weight), the HR is reported as −10.6%, the LVdP/dt is listed as −47.8%, the PQ interval is reported as 3.4% and the QRS interval stood at 6.3%. Further, in the series with anesthetized dogs (dose 6.6 mg/kg weight), the QTc interval was −4.6% and the mAP is listed as −44.2%. Moreover, in the series with anesthetized dogs, the “effects on the cardiovascular system” value is given as “exhibited effects on the cardiovascular system”.
Turning to `Cc1cccc(C)c1NC(=O)CC12CCCN1CCC2` [Pilsicainide], in the series on anesthetized dogs (dose 1 mg/kg weight), the HR is −1.0%, the LVdP/dt is −20.6%, the PQ interval came out at 17.4% and the QTc interval came to 4.6%. Moreover, in the series with anesthetized dogs (dose 1 mg/kg weight), the mAP is recorded as −3.2%. Further, in the series with anesthetized dogs (dose 3 mg/kg weight), the HR is given as −5.0%, the LVdP/dt is listed as −31.7%, the PQ interval worked out at 55.1% and the QTc interval worked out at 5.3%. In addition, the mAP in the series on anesthetized dogs (dose 3 mg/kg weight) was −8.2%. Moreover, the “effects on the cardiovascular system” value in the series on anesthetized dogs is listed as “exhibited effects on the cardiovascular system”.
